Values quoted from earlier work, collected in patent US20070015728A1, “Metered-dose and safety and compliance packaging for systemic anticancer therapy” (priority 2005, published 2007).

Columns and labels:
OPRT = target: T1, OPRT (Homo sapiens, UniProt P11172); conditions: neutral pH
T1 sequence (P11172 1-480): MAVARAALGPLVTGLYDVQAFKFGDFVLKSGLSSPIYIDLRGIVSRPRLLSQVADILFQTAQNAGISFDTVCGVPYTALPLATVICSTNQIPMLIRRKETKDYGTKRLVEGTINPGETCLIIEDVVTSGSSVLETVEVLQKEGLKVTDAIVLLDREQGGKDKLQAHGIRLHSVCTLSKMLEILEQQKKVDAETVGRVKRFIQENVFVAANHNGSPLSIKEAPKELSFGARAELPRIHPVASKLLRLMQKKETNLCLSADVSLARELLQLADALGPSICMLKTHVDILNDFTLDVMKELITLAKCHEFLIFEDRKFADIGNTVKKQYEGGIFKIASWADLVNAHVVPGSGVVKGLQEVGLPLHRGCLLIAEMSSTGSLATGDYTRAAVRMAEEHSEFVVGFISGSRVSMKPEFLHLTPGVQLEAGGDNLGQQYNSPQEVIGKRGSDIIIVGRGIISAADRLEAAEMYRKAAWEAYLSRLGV

hand-foot syndrome (HFS) = conditions: treatment with capecitabine at the FDA-approved dose; XELODA product insert

SMILES	Km for OPRT, fold lower than 5-FU (OPRT) [fold]	grade 3 incidence of HFS (hand-foot syndrome (HFS))	incidence of HFS irrespective of grade (hand-foot syndrome (HFS))
O=C(O)c1cc(=O)[nH]c(=O)[nH]1 [Orotate]	~50	–	–
CCCCCOC(=O)Nc1nc(=O)n([C@@H]2O[C@H](C)[C@@H](O)[C@H]2O)cc1F [Xeloda, Capecitabine]	–	11-17%	54%-67%
